Measured values as given in ChEMBL document CHEMBL1124271, “Synthesis of ethyl 2-(4-chlorophenyl)-5-(2-furyl)-4-oxazoleacetate, a hypolipidemic agent, and related compounds” (1988).
Active and inactive are the calls of the source. The rule behind the calls is not given here.

Experiments:
Rattus norvegicus [1] = organism: Rattus norvegicus; experiment: Hypolipidemic activity was expressed as percent decrease in triglycerides; assay type: functional; design: concentration or dose not given beside the values
Rattus norvegicus [2] = organism: Rattus norvegicus; experiment: Ability to inhibit collagen -induced platelet aggregation in male SD rats; <10; assay type: functional; design: concentration or dose not given beside the values
Rattus norvegicus [3] = organism: Rattus norvegicus; experiment: Hypolipidemic activity was expressed as percent decrease in serum cholesterol; assay type: functional; design: concentration or dose not given beside the values
Rattus norvegicus [4] = organism: Rattus norvegicus; experiment: Hypolipidemic activity was expressed as percent decrease in serum cholesterol in Sprague-Dawley rats; assay type: functional; design: concentration or dose not given beside the values
Rattus norvegicus [5] = organism: Rattus norvegicus; experiment: Hypolipidemic activity was expressed as percent decrease in triglycerides in Sprague-Dawley rats; assay type: functional; design: concentration or dose not given beside the values
Rattus norvegicus [6] = organism: Rattus norvegicus; experiment: Inhibition of collagen-induced platelet aggregation in male SD rats; Inhibition >= 10% but < aspirin (34-96%).; assay type: functional
Rattus norvegicus [7] = organism: Rattus norvegicus; experiment: The ability to inhibit platelet aggregation was tested; Inhibition >= 10% but < aspirin (34-96%); assay type: functional
Rattus norvegicus [8] = organism: Rattus norvegicus; experiment: The ability to inhibit platelet aggregation was tested; <10; assay type: functional
Rattus norvegicus [9] = organism: Rattus norvegicus; experiment: Ability to inhibit collagen -induced platelet aggregation in male SD rats; Inhibition >= aspirin (34-96%); assay type: functional, organism-based
Rattus norvegicus [10] = organism: Rattus norvegicus; experiment: Hypolipidemic activity was expressed as percent decrease in serum cholesterol in Sprague-Dawley rats; No evaluation; assay type: functional, organism-based
Rattus norvegicus [11] = organism: Rattus norvegicus; experiment: Ability to inhibit collagen -induced platelet aggregation in male SD rats; No evaluation; assay type: functional, organism-based
Rattus norvegicus [12] = organism: Rattus norvegicus; experiment: Hypolipidemic activity was expressed as percent decrease in triglycerides; No evaluation; assay type: functional, organism-based
Rattus norvegicus [13] = organism: Rattus norvegicus; experiment: Hypolipidemic activity was expressed as percent decrease in triglycerides; NE means no evaluation; assay type: functional, organism-based
Rattus norvegicus [14] = organism: Rattus norvegicus; experiment: Ability to inhibit collagen -induced platelet aggregation in male SD rats; NE means no evaluation; assay type: functional, organism-based
Rattus norvegicus [15] = organism: Rattus norvegicus; experiment: Hypolipidemic activity was expressed as percent decrease in serum cholesterol; NE means no evaluation; assay type: functional, organism-based

Row | SMILES | Reduction (Rattus norvegicus [4]) [%] | Reduction (Rattus norvegicus [5]) [%] | Inhibition (Rattus norvegicus [6]) | other results
1 | CCCCCCCCCCCCOC(=O)Cc1nc(-c2ccc(Cl)cc2)oc1-c1ccco1 |  |  |  | Reduction (Rattus norvegicus [1]): 30%; Inhibition (Rattus norvegicus [2]): <10%; Reduction (Rattus norvegicus [3]): 20%
2 | CCOC(=O)Cc1nc(-c2ccc(Cl)cc2)oc1-c1ccc(C(C)=O)o1 | 0 | -14 |  | 
3 | O=C(O)Cc1nc(-c2cccc(C(F)(F)F)c2)oc1-c1ccco1 | 8 | 50 | >=10% | 
4 | CC(C)c1nc(CC(=O)O)c(-c2ccsc2)o1 | 20 | 16 | >=10% | 
5 | O=C(Cc1nc(-c2ccc(Cl)cc2)oc1-c1ccco1)OCc1cccnc1 | 18 | 42 |  | Inhibition (Rattus norvegicus [2]): <10%
6 | CC(C(=O)O)c1nc(-c2ccc(Cl)cc2)oc1-c1ccco1 (configuration not stated) | 16 | 41 |  | 
7 | CCOC(=O)Cc1nc(-c2ccc(Cl)c(Cl)c2)oc1-c1ccoc1 | 19 | 49 |  | Inhibition (Rattus norvegicus [2]): <10%
8 | CCOC(=O)C(C)c1nc(-c2ccc(Cl)cc2)oc1-c1ccco1 (configuration not stated) | 20 | 31 |  | Inhibition (Rattus norvegicus [7]): >=10%
9 | CCOC(=O)C(CC)c1nc(-c2ccc(Cl)cc2)oc1-c1ccco1 (configuration not stated) | 0 | -10 |  | Inhibition (Rattus norvegicus [8]): <10%
10 | CCOC(=O)Cc1nc(-c2ccc(Cl)cc2)oc1-c1ccco1 | 23 | 35 | >=10% | 
11 | CCOC(=O)Cc1nc(-c2ccccc2)oc1-c1ccco1 | 14 | 23 | >=10% | 
12 | CCOC(=O)Cc1nc(-c2ccc(F)cc2)oc1-c1ccco1 | 20 | 24 | >=10% | 
13 | CC(=O)Oc1ccccc1C(=O)O |  |  |  | inhibition (Rattus norvegicus [9]): Active
14 | CCCCCCCc1nc(CC(=O)O)c(-c2ccsc2)o1 |  |  | >=10% | Reduction (Rattus norvegicus [1]): 27%; Reduction (Rattus norvegicus [3]): 11%
15 | CCOC(=O)Cc1nc(-c2ccc(C)cc2)oc1-c1ccco1 | 9 | -6 | >=10% | 
16 | CCOC(=O)Cc1nc(-c2ccc(Cl)cc2)oc1-c1ccsc1 | 23 | 39 |  | Inhibition (Rattus norvegicus [7]): >=10%
17 | Cc1ccc(-c2nc(CC(=O)O)c(-c3ccco3)o2)cc1 | 9 | 29 | >=10% | 
18 | CCOC(=O)Cc1nc(-c2ccccc2)oc1-c1ccoc1 | 17 | 46 | >=10% | 
19 | CCOC(=O)Cc1nc(-c2ccc(Cl)cc2)oc1-c1ccc(C=O)o1 |  |  |  | Reduction (Rattus norvegicus [1]): -5%; Reduction (Rattus norvegicus [3]): 9%
20 | CCOC(=O)Cc1nc(C2CCCCC2)oc1-c1ccco1 |  |  |  | Reduction (Rattus norvegicus [10]): No effect; inhibition (Rattus norvegicus [11]): No effect; Reduction (Rattus norvegicus [12]): No effect
21 | CCOC(=O)Cc1nc(-c2ccc(Cl)cc2)sc1-c1ccsc1 | -8 | 21 |  | inhibition (Rattus norvegicus [11]): No effect
22 | O=C(O)Cc1nc(C2CCCCC2)oc1-c1ccco1 | 13 | 18 | >=10% | 
23 | CCOC(=O)Cc1nc(-c2ccc(F)cc2)oc1-c1ccoc1 | 30 | 28 | >=10% | 
24 | O=C(O)Cc1nc(-c2ccc(Cl)cc2)oc1-c1ccoc1 | 23 | 42 |  | 
25 | CCOC(=O)Cc1nc(-c2ccc(Cl)cc2)oc1N1CCCC1 | -2 | -20 |  | 
26 | O=C(O)Cc1nc(-c2ccc(F)cc2)oc1-c1ccco1 |  |  | >=10% | Reduction (Rattus norvegicus [1]): 10%; Reduction (Rattus norvegicus [3]): 20%

Row | SMILES | Reduction (Rattus norvegicus [4]) [%] | Reduction (Rattus norvegicus [5]) [%] | Inhibition (Rattus norvegicus [6]) | other results
27 | CCOC(=O)Cc1nc(C(C)C)oc1-c1ccco1 | 12 | 21 |  | Inhibition (Rattus norvegicus [2]): <10%
28 | CCOC(=O)Cc1nc(-c2ccc(Cl)cc2)sc1-c1ccco1 | -15 | 17 |  | 
29 | CCCCc1nc(CC(=O)OCC)c(-c2ccco2)o1 | 2 | 16 |  | 
30 | COc1ccc(-c2nc(CC(=O)O)c(-c3ccco3)o2)cc1 | 5 | -1 | >=10% | 
31 | O=C(O)Cc1nc(-c2ccc(Cl)cc2)oc1-c1ccco1 | 20 | 35 | >=10% | 
32 | O=C(O)Cc1nc(-c2ccccc2)oc1-c1ccco1 | 14 | 29 | >=10% | 
33 | CCCCCCCc1nc(CC(=O)OCC)c(-c2ccsc2)o1 |  |  |  | Reduction (Rattus norvegicus [13]): No effect; inhibition (Rattus norvegicus [14]): No effect; Reduction (Rattus norvegicus [15]): No effect
34 | O=C(O)Cc1nc(-c2ccc(F)cc2)oc1-c1ccoc1 | 23 | 38 | >=10% | 
35 | CCOC(=O)C(C)(C)c1nc(-c2ccc(Cl)cc2)oc1-c1ccco1 | -4 | -25 |  | Inhibition (Rattus norvegicus [8]): <10%
36 | Cc1nc(CC(=O)O)c(-c2ccco2)o1 | 10 | -20 |  | Inhibition (Rattus norvegicus [2]): <10%
37 | CCOC(=O)Cc1nc(-c2cccc(C(F)(F)F)c2)oc1-c1ccco1 | 15 | 0 |  | Inhibition (Rattus norvegicus [2]): <10%
38 | CC(C)c1nc(CC(=O)O)c(-c2ccco2)o1 | 5 | 9 |  | Inhibition (Rattus norvegicus [2]): <10%
39 | CCCCOC(=O)Cc1nc(-c2ccc(Cl)cc2)oc1-c1ccco1 | 20 | 27 |  | Inhibition (Rattus norvegicus [2]): <10%
40 | CCOC(=O)Cc1nc(-c2ccc(Cl)cc2)oc1-c1ccc(Br)o1 | 10 | 2 |  | 
41 | CC(C)(C(=O)O)c1nc(-c2ccc(Cl)cc2)oc1-c1ccco1 | 16 | 54 |  | Inhibition (Rattus norvegicus [8]): <10%
42 | CCOC(=O)C(C)(C)Oc1ccc(Cl)cc1 [CLOFIBRATE] |  |  |  | Reduction (Rattus norvegicus [1]): 30%; Inhibition (Rattus norvegicus [2]): <10%; Reduction (Rattus norvegicus [3]): 15%
43 | CCOC(=O)Cc1nc(-c2ccc(Cl)cc2)oc1-c1ccoc1 | 25 | 42 | >=10% | 
44 | O=C(O)Cc1nc(-c2ccc(Cl)c(Cl)c2)oc1-c1ccoc1 | 19 | 60 | >=10% | 
45 | CCOC(=O)Cc1nc(-c2ccc(OC)cc2)oc1-c1ccco1 | 0 | 4 | >=10% | 
46 | CCOC(=O)Cc1nc(-c2ccccc2)oc1C1CCCO1 (configuration not stated) | 8 | 8 |  | Inhibition (Rattus norvegicus [2]): <10%
47 | CCCCCCCOC(=O)Cc1nc(-c2ccc(Cl)cc2)oc1-c1ccco1 |  |  |  | Reduction (Rattus norvegicus [1]): 42%; Inhibition (Rattus norvegicus [2]): <10%; Reduction (Rattus norvegicus [3]): 19%
48 | CCOC(=O)C(C)c1nc(-c2ccc(Cl)cc2)oc1-c1ccoc1 (configuration not stated) | 22 | 45 |  | Inhibition (Rattus norvegicus [7]): >=10%
49 | CCOC(=O)Cc1nc(C(C)C)oc1-c1ccsc1 | 15 | 28 | >=10% | 
50 | CCOC(=O)Cc1nc(-c2ccc(Cl)cc2)oc1-c1ccc(S(=O)(=O)O)o1 | -5 | 23 |  | 
51 | CCOC(=O)Cc1nc(C)oc1-c1ccco1 |  |  |  | Reduction (Rattus norvegicus [10]): No effect; inhibition (Rattus norvegicus [11]): No effect; Reduction (Rattus norvegicus [12]): No effect
